Test results published in patent US4052455A, “Styrylamidines” (Mead Johnson & Company, priority 1975, dated 1977).

Key:
CNS = CNS effects after oral or intraperitoneal administration to the mouse; assay type: in vivo
Protocol: 5,6-Dihydro-4-methyl-5-(4-nitrophenyl)-3-phenyl-4H-1,2,4-thiadiazine 1,1-dioxide was not effective in preventing the phenylquinone writhing syndrome in mice at an oral dose of 100 mg./kg. body weight or subcutaneous dose of 6 mg./kg. body weight.

[1] = system: phenylquinone writhing syndrome; experiment: Phenylquinone writhing test (analgesic activity); assay type: in vivo; settings: mice
Protocol: In this test, groups of 10-20 mice are injected subcutaneously or orally with different doses of the test compound. At predetermined time intervals, the mice receive 2.5 mg./kg. phenylquinone intraperitoneally. The total number of writhing episodes is counted for each mouse for 10 min. and the average percent decrease in writhing recorded for each dose.
The novel styrylsulfonylamidines of Formula V in addition to being useful as precursors to the styrylamidine products of Formula I have analgesic utility as measured in the foregoing phenylquinone writhing test. A preferred class of styrylsulfonylamidines of Formula V having particularly significant analgesic activity are those wherein R1 and R2 are each hydrogen, nitro or halogen and A is phenyl or lower alkyl of from 1 to 8 carbon atoms inclusive. Analgesic activity at the time interval indicated following administration of compounds representative of this class are given in Table I below.

blood pressure [2] = experiment: Blood pressure in spontaneous hypertensive rat; assay type: in vivo; settings: 50 mg./kg.
Protocol: (§1) For instance, at 1.0 mg./kg. body weight, this compound provides a 33% reduction in blood pressure while at 10.0 mg./kg. body weight, a 64% reduction in blood pressure is obtained. In the same test procedure, the prior art cinnamylamidine, N-(4-chlorocinnamyl)acetamidine, provided a 12% increase in blood pressure with a 6% decrease in heart rate at a dose of 1.0 mg./kg. body weight. At a dose of 10.0 mg./kg. body weight, the prior art cinnamylamidine provides an increase of 26% in blood pressure.

urine output = experiment: Lipschitz diuretic test; assay type: in vivo; settings: oral dose 30 mg./kg. body weight
Text: N-(2,6-dichlorostyryl)acetamidine is orally effective as a diuretic agent according to the W. L. Lipschitz, et al., J. Pharmacol. Expt.

[3] = as reported in U.S. Pat. No. 3,413,345; cited from earlier work
blood pressure [4] = experiment: Blood pressure and heart rate in anesthetized normotensive dog; assay type: in vivo
Protocol: as §1

mouse electroshock = experiment: Mouse electroshock test of Swinyard (anticonvulsant); assay type: in vivo; settings: 250 mg./kg. body weight
Text: Aside from antithrombogenic and analgesic effects, compounds of Formula I wherein R1 and R2 substituents are halogen (particularly chlorine), R3 is hydrogen or methyl and A is selected from the group consisting of lower alkyl of from 1 to 8 carbon atoms inclusive or cycloalkyl of from 3 to 6 carbon atoms inclusive, are useful as anticonvulsant, hypotensive and antihypertensive agents. […] For example, N-(2,6-dichlorostyryl)acetamidine in the mouse electroshock test of E. A. Swinyard, J. Amer. Pharm.

SMILES	CNS effect (CNS)	Prevention of the phenylquinone writhing syndrome ([1]; oral dose 100 mg./kg. body weight)	Prevention of the phenylquinone writhing syndrome ([1]; subcutaneous dose 6 mg./kg. body weight)	Antihypertensive effect (blood pressure [2])	Change in blood pressure (blood pressure [2])	Diuretic activity (urine output)	Hypotensive effect [3]	Decrease in heart rate (blood pressure [4]; 1.0 mg./kg.) [%]	Increase in blood pressure (blood pressure [4]; 1.0 mg./kg.) [%]	Increase in blood pressure (blood pressure [4]; 10.0 mg./kg.) [%]	Activity in mouse electroshock test (mouse electroshock)
CN1C(c2ccccc2)=NS(=O)(=O)CC1c1ccc([N+](=O)[O-])cc1 (centres unmarked) [5,6-dihydro-4-methyl-5-(4-nitrophenyl)-3-phenyl-4H-1,2,4-thiadiazine 1,1-dioxide]	non-specific CNS depression	not effective	not effective	–	–	–	–	–	–	–	–
CC(=N)NCC=Cc1ccc(Cl)cc1 [N-(4-chlorocinnamyl)acetamidine, reference compound]	–	–	–	devoid of antihypertensive effects	slight increase in blood pressure	essentially inactive	hypotensive effects which are quick in onset and of considerable duration	6	12	26	completely inactive
